14 compounds from ChEMBL document CHEMBL3217509, “Discovery of an HIV integrase inhibitor with an excellent resistance profile” (Medchemcomm, 2013) can be followed below.

Data set [1] can be described thus: Intrinsic clearance in human liver microsomes assessed per mg of protein by LC-MS/MS analysis. Type of data set: ADME. The settings on record: read-out: CLH.
The nature of data set [2]: Intrinsic clearance in human hepatocytes assessed assessed per million of cells by LC-MS/MS analysis. Type of data set: ADME, cell-based, Hepatocyte. The note with it: read-out: CLH.
The subject of data set [3] is Human immunodeficiency virus 1. Briefly: Antiviral activity against HIV1 NL4-3 infected in human MT2 cells after 3 days by human JC53BL cell-based beta-galactosidase reporter gene assay. The class given is functional, organism-based. The note with it: Human immunodeficiency virus 1, NL4-3, JC53BL, 72 h.
Data set [4] is described as follows: Intrinsic clearance in human liver microsomes assessed per mg of protein by LC-MS/MS analysis in presence of UDPGA. The class given is ADME. The note with it: read-out: CLH.
A short description of data set [5]: Inhibition of DNA polymerase alpha (unknown origin). The arrangement: species or system Homo sapiens.
A short description of data set [6]: Inhibition of DNA polymerase beta (unknown origin). The arrangement: species or system Homo sapiens.
Data set [7] can be described thus: Aqueous solubility of the compound at pH 7.4. Type of data set: physicochemical. The note with it: buffer.
Data set [8] in a line: Inhibition of DNA polymerase gamma (unknown origin). The arrangement: species or system Homo sapiens.

Each structure is given as a SMILES string.

For the compound `COc1cc(F)ccc1Cn1ccc2c3c(ncc21)C(=O)N(O)C3(C)C`, the microsomal CLint is under 8 µL/min/mg in data set [1] and 4.8 µL/min/mg in data set [4]. For the same compound, in data set [2], the hepatocyte CLint amounted to 28.8 µL/min/1e6 cells. This compound also showed a concentration for half-maximal inhibition (IC50) in data set [3] of over 7.48 µM.

On to `C[C@@]1(CO)[C@H](O)CC[C@@]2(C)[C@H]1CC[C@H]1C[C@@H]3C[C@@]12CC[C@]3(O)CO` [APHIDICOLIN], for which the results for the IC50 in data set [5] and in data set [6] were 7.17 µM and 1.96 µM, respectively.

Consider `O=C1c2ncc3c(ccn3Cc3ccc(F)cc3OC(F)F)c2CCN1O`, for which the microsomal CLint in data set [1] was 15.4 µL/min/mg; in data set [4], 5.8 µL/min/mg. In data set [2], the hepatocyte CLint turned out to be 17 µL/min/1e6 cells. The IC50 in data set [3] amounted to 0.005 µM.

As for `COc1cc(Cn2ccc3c4c(ncc32)C(=O)N(O)CC4)ccc1F`, the figures for the microsomal CLint in data set [1] and in data set [4] were 12.5 µL/min/mg and 18 µL/min/mg, respectively. Moreover, in data set [2], the hepatocyte CLint stood at 34.3 µL/min/1e6 cells. This compound displayed an IC50 in data set [3] of 0.019 µM.

With `CCOc1cc(F)ccc1Cn1ccc2c3c(ncc21)C(=O)N(O)CC3`, the microsomal CLint in data set [1] was under 8 µL/min/mg; in data set [4], 5 µL/min/mg. In addition, in data set [2], the hepatocyte CLint stood at 23.2 µL/min/1e6 cells. Moreover, the midpoint of inhibition in data set [3], the IC50, lay at 0.0041 µM.

Regarding `CC1(C)CN(O)C(=O)c2ncc3c(ccn3Cc3ccc(F)cc3)c21`, the hepatocyte CLint in data set [2] turned out to be 64.7 µL/min/1e6 cells. In data set [3], this compound returned an IC50 of 0.001 µM. Besides, the microsomal CLint in data set [4] was found to be 170 µL/min/mg.

With `O=C(NCCO)c1c(O)c2ncc3c(ccn3Cc3ccc(F)cc3)c2[nH]c1=O`, the values for the microsomal CLint in data set [1] and in data set [4] were 17.3 µL/min/mg and under 3.5 µL/min/mg, respectively. The hepatocyte CLint in data set [2] stood at 2.9 µL/min/1e6 cells. The compound further registered an IC50 in data set [3] of 0.001 µM. This compound also had a solubility in data set [7] of under 1 µg/mL.

For the compound `O=C1c2ncc3c(ccn3Cc3ccc(F)cc3)c2CCN1O`, the microsomal CLint amounted to 19.2 µL/min/mg in data set [1] and 24 µL/min/mg in data set [4]. In data set [2], the hepatocyte CLint was 29.6 µL/min/1e6 cells.

With `Cc1cn([C@H]2C[C@H](N=[N+]=[N-])[C@@H](COP(=O)(O)OP(=O)(O)OP(=O)(O)O)O2)c(=O)[nH]c1=O` [ZIDOVUDINE TRIPHOSPHATE], the results for the IC50 in data set [5], in data set [8] and in data set [6] were 7.17 µM, 3.7 µM and 1.96 µM, respectively.

Consider `Cc1nc2c(ncc3c2ccn3Cc2ccc(F)cc2)c(=O)n1O`, for which the microsomal CLint in data set [1] was 21.3 µL/min/mg; in data set [4] it was 80.2 µL/min/mg. For the same compound, the hepatocyte CLint in data set [2] came to 14.1 µL/min/1e6 cells. For the same compound, the IC50 in data set [3] is 0.451 µM.

As to `O=C1Nc2ccc(Cl)cc2[C@@](C#CC2CC2)(C(F)(F)F)O1` [EFAVIRENZ], the figures for the IC50 in data set [5], in data set [8] and in data set [6] were over 50 µM, at most 50 µM and over 50 µM, respectively.

Turning to `Cc1cn([C@H]2CC[C@@H](COP(=O)(O)OP(=O)(O)OP(=O)(O)O)O2)c(=O)[nH]c1=O`, the IC50 in data set [5] is 7.17 µM; in data set [6], 1.96 µM.

`COCCNC(=O)c1c(O)c2ncc3c(ccn3Cc3ccc(F)cc3)c2[nH]c1=O`: the microsomal CLint in data set [1] was found to be 32 µL/min/mg; in data set [4], 3.5 µL/min/mg. In addition, the hepatocyte CLint in data set [2] is 5.9 µL/min/1e6 cells. The IC50 in data set [3] worked out at 0.006 µM. For the same compound, the solubility in data set [7] is under 1 µg/mL.

Consider `COc1cc(F)ccc1Cn1ccc2c3c(ncc21)C(=O)N(O)C(C)(C)C3`, for which the microsomal CLint in data set [1] was 17 µL/min/mg; in data set [4], 19.7 µL/min/mg. Further, in data set [2], the hepatocyte CLint came to 37.7 µL/min/1e6 cells. The compound also yielded an IC50 in data set [3] of 0.0039 µM.
